Patent publication US20070292351A1, “Assay for efficacy of histone deacetylase inhibitors” (Methylgene, Inc., priority 2006, published 2007)

Legend:
[1] = test system: human colon cancer HCT15 cells; assay: RT-PCR of MT3 transcription in HCT15 cells; format: cell-based; settings: 16 hours, real-time RT-PCR normalized against beta-actin (FIG. 1)
Method: FIG. 1. […] HCT15 cells were treated with HDAC inhibitors or indicated compounds for 16 hours before total RNAs are isolated. RNA levels of MT3 were measured by real-time RT-PCR and are subsequently normalized against β-actin.
Colon cancer HCT15 cells were exposed to 1 μM MGCD0103 for various amounts of time, and MT3 RNA levels were monitored by conventional semi-quantitative RT-PCR. Maximal induction is achieved between 8 h and 24 h of exposure and maintained through 72 h.
RNA was extracted from 8×10^6 cells using the Qiagen RNeasy Mini kit (cat#74106, Qiagen, Missisauga Ont.) following the manufacturer's instructions. RT reaction was performed using the Expand Reverse Transcriptase kit from Roche (Cat#1 785 834 Roche Applied Biosciences, Laval, Que) with 1 μg total RNA together with 1 μl oligo(dT) primer (cat#y01212, Invitrogen-Canada, Burlington, Ont). cDNA was synthesized using an Eppendorf Mastercycler gradient PCR apparatus (Brinkmann Instruments Canada LTD., Mississauga, Ontario), using a two cycle protocol. For the 1st cycle reaction mixture (0.5 μl H2O, 4 μl of 5× Buffer, 2 μl DTT, 2 ul of 10 mM dNTPs, 0.5 μl RNAsin (cat#N211B, Promega, Fisher Scientific, Whitby, Ont.) and […] of the Expand Reverse Transcriptase (Cat#1785834, Roche, Laval, Quebec)) was incubated at 65° C. for 10 minutes and then set on ice. A second cycle was performed at 42° C. for 1 hour. The resulting cDNA products were kept at 4° C. until used.
One ul of the resulting cDNA was used for every amplification reaction with 18.9 ul H2O, 1.25 ul of 10 mM dNTPs, 0.5 ul of each primer pair, 2.5 ul of 10× Buffer. The PCR reaction was carried out in an Eppendorf Mastercycler gradient. The sequences of the primers used for the amplification of selected biomarkers, as well as the details of the PCR reaction cycles are featured below. All buffers came from Expand Long Template PCR system (Roche, Laval, Quebec, Cat#11681842001). All primers were synthesized by Invitrogen (Invitrogen-Canada, Burlington, Ont.)
Analysis of transcripts was performed using STORM 860 (Amersham Biosciences, Baie d'Urfe, Qubec). Transcription of genes was normalized to transcription of actin, which was performed in the same RT-PCR reaction. The relative expression level of gense was normalized to baseline signals.
Quantitative PCR with SYBR Green I detection with Mastercycler® ep realplex (Eppendorf) was performed using LightCycler® 480 SYBR Green I Master (Roche Diagnostics). SYBR Green I assays were performed with 600 nM primers. All other reaction conditions were as described by the manufacturer. Amplification conditions were 5 minutes of initial denaturation at 95° C., followed by 40 cycles of each 15 seconds at 95° C., 15 seconds at 63.4° C., 20 seconds at 68° C., a melting curve from 60° C. to 95° C. was recorded. Quantification was performed using Pfaffl method, a relative quantification method in real-time PCR (Nucleic Acids Research 2001 29:2002-2007). Primers were synthesized by Invitrogen (Invitrogen-Canada, Burlington, Ont.).

[2] = test system: peripheral blast cells from AML patients; settings: ex vivo treatment (Nebbioso et al. 2004); cited from earlier work

Row | Compound | Induction of transcription of MT3 [1] | level of pro-apoptotic TRAIL expression [2]
1 | O=C(CCCCCCC(=O)Nc1ccccc1)NO [SAHA] | induced | 
2 | Nc1ccccc1NC(=O)c1ccc(CNC(=O)OCc2cccnc2)cc1 [MS-275] | induced | increase
